Where a name gives a salt, the structure may show the parent alone.
How the values were obtained:
[1] = system: aorta rings; experiment: Vasorelaxant action in vitro (phenylephrine-contracted rabbit aorta rings); conditions: Oryctolagus cuniculus, phenylephrine-induced contraction, organ bath 37° C., 0.1% DMSO, read-out: IC50 (concentration needed to reduce the magnitude of the control contraction by 50%)
Protocol: B-1. Vasorelaxant Action In Vitro
Rabbits are stunned by a blow to the neck and exsanguinated. The aorta is removed, freed from adhering tissue and divided into rings of a width of 1.5 mm. The rings are placed individually under an initial tension in 5 ml organ baths with Krebs-Henseleit solution which is at 37° C., is gassed with carbogen and has the following composition (in each case mM): sodium chloride 119; potassium chloride: 4.8; calcium chloride dihydrate: 1; magnesium sulfate heptahydrate: 1.4; potassium dihydrogenphosphate: 1.2; sodium bicarbonate: 25; glucose: 10. The contractile force is determined with Statham UC2 cells, amplified and digitalized using A/D transducers (DAS 1802 HC, Keithley Instruments Munich), and recorded in parallel on linear recorders. To obtain a contraction, phenylephrine is added to the bath cumulatively in increasing concentration. After several control cycles, the substance to be investigated is added in each further run in increasing dosage in each case, and the height of the contraction achieved is compared with the height of the contraction reached in the last preceding run. This is used to calculate the concentration needed to reduce the magnitude of the control value by 50% (IC50 value). The standard administration volume is 5 μl; the DMSO content in the bath solution corresponds to 0.1%.

[2] = target: T1, recombinant guanylate cyclase reporter cell line (Rattus norvegicus, UniProt P19686+P20595); experiment: Effect on a recombinant guanylate cyclase reporter cell line; assay type: cell-based; conditions: recombinant guanylate cyclase reporter cell line (Wunder et al. 2005)
T1 construct: expressed in transfected cells
T1 sequence (P19686 1-690): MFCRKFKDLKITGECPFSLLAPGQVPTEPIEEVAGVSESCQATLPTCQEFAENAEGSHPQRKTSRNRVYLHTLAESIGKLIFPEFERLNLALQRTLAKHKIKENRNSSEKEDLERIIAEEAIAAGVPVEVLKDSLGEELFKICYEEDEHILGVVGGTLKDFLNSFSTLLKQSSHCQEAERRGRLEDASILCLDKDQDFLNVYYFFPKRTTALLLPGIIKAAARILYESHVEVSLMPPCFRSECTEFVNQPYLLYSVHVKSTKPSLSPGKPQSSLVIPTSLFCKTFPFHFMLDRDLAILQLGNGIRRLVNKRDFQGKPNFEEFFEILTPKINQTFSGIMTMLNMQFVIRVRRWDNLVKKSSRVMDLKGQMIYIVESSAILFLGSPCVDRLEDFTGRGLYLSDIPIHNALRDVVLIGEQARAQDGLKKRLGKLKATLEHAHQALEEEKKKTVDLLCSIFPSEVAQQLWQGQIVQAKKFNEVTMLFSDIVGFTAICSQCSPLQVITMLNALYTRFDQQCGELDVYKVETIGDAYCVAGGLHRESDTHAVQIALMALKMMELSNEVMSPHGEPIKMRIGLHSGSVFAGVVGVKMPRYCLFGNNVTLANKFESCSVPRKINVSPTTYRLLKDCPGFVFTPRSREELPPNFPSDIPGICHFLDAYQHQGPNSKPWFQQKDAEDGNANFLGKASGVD
T1 sequence (P20595 1-619): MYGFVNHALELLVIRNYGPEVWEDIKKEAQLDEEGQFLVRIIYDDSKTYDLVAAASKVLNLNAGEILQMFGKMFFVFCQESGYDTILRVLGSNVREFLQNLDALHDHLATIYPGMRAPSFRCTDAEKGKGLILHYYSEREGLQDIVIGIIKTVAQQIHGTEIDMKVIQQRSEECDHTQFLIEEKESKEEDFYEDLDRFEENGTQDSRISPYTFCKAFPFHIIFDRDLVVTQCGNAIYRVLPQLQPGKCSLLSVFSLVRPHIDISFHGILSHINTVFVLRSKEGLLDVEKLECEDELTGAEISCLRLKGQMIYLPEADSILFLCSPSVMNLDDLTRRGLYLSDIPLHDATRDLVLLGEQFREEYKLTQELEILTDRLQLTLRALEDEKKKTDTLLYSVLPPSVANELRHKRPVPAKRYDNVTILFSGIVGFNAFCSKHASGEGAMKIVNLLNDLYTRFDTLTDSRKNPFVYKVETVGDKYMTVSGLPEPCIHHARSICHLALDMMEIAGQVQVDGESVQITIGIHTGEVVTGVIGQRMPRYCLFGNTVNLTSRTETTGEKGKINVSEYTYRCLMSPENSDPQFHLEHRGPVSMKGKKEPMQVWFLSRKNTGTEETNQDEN
Protocol: B-2. Effect on a Recombinant Guanylate Cyclase Reporter Cell Line
The cellular activity of the compounds according to the invention is determined using a recombinant guanylate cyclase reporter cell line, as described in F. Wunder et al., Anal. Biochem. 339, 104-112 (2005).

Row | Structure (SMILES) | IC50 [1] | MEC (minimum effective concentration) [2]
1 | Nc1nc(N)nc(-c2nc(Cc3ccccc3F)n3ncccc23)n1 [Example 1, 6-[7-(2-Fluorobenzyl)imidazo[1,5-b]pyridazin-5-yl]-1,3,5-triazine-2,4-diamine formate] | 130 nM | 0.03 µM
2 | COC(=O)N(Cc1ccccc1)c1c(N)nc(-c2nc(Cc3ccccc3F)n3ncccc23)nc1N [Example 15, Methyl benzyl{4,6-diamino-2-[7-(2-fluorobenzyl)imidazo[1,5-b]pyridazin-5-yl]pyrimidin-5-yl}carbamate formate] | 171 nM | 0.01 µM
3 | CCN(C(=O)OC)c1c(N)nc(-c2nc(Cc3ccccc3F)n3ncccc23)nc1N [Example 8, Methyl {4,6-diamino-2-[7-(2-fluorobenzyl)imidazo[1,5-b]pyridazin-5-yl]pyrimidin-5-yl}ethylcarbamate formate] | 152 nM | 0.1 µM
4 | CCOC(=O)Nc1c(N)nc(-c2nc(Cc3ccccc3F)n3ncccc23)nc1N [Example 5, Ethyl {4,6-diamino-2-[7-(2-fluorobenzyl)imidazo[1,5-b]pyridazin-5-yl]pyrimidin-5-yl}carbamate formate] | 200 nM | 0.3 µM
5 | COC(=O)N(Cc1cccc(F)c1)c1c(N)nc(-c2nc(Cc3ccccc3F)n3ncccc23)nc1N [Example 19, Methyl {4,6-diamino-2-[7-(2-fluorobenzyl)imidazo[1,5-b]pyridazin-5-yl]pyrimidin-5-yl}(3-fluorobenzyl)carbamate formate] | 81 nM | 0.1 µM
6 | Nc1nc(-c2nc(Cc3ccccc3F)n3ncccc23)nc(N)c1NC(=O)OC1CCC1 [Example 11, Cyclobutyl {4,6-diamino-2-[7-(2-fluorobenzyl)imidazo[1,5-b]pyridazin-5-yl]pyrimidin-5-yl}carbamate formate] | 422 nM | 0.3 µM
